3 compounds from US20250017942A1, “Prevention and treatment of osteoarticular diseases by inhibiting acetylcholinesterase” (priority 2021, published 2025) can be followed below.

Assay [1] concerns the target AChE (rat cortex homogenate) (Rattus norvegicus, UniProt P37136). Put plainly: biochemical. Conditions: for IC50: rat cortex homogenate, in the presence of ethopropazine as a specific BuChE inhibitor. The assay is classed as biochemical.
The subject of assay [2] is ATDC5 cells. Put plainly: IL-1β-stimulated ATDC5 cells, marker expression by qPCR. Format: cell-based, mouse. To be noted: 10 ng/ml IL-1β, 24 h, qPCR (FIG. 3A).
Assay [3] concerns RAW 264.7 cells. Briefly: RANKL-induced osteoclastogenesis of RAW 264.7 cells. The assay is classed as cell-based, mouse. To be noted: RAW 264.7, RANKL 15 ng/ml 3 days, 0.1, 0.5 and 1 μM (FIG. 9).

Molecules are shown by their SMILES. Structures can show the parent of a compound that is named as a salt.

As usually defined, the IC50 is the concentration that gives 50% inhibition.

Chain of AChE (rat cortex homogenate) (P37136 32-614): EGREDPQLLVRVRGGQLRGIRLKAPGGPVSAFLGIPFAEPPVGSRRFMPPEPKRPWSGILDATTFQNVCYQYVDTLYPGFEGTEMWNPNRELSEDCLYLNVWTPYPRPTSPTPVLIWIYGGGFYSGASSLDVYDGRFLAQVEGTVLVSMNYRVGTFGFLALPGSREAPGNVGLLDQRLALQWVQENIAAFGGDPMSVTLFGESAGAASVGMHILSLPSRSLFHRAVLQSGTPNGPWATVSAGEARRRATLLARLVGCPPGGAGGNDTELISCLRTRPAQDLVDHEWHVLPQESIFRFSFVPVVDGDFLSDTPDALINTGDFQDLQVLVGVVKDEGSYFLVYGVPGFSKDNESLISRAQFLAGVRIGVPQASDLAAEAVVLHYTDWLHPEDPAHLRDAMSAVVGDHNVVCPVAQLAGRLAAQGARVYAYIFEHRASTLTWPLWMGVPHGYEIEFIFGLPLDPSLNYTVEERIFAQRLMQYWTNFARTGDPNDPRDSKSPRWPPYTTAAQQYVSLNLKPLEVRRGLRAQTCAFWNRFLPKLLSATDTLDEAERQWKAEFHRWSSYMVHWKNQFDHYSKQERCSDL

Turning to `O=c1ccc2c([nH]1)CCCC2NCCCCCCCCCCCCCNC1CCCc2[nH]c(=O)ccc21` (stereo not drawn) [E13E], the half-maximal inhibitory concentration (IC50) in assay [1] worked out at 52 ± 9 nM.

On to `O=c1ccc2c([nH]1)CCCC2NCCCCCCCCCCCNC1CCCc2[nH]c(=O)ccc21` (stereo not drawn) [E11E], for which, in assay [1], the half-maximal inhibitory concentration (IC50) was 84 ± 5 nM.

On to `O=c1ccc2c([nH]1)CCC[C@@H]2NCCCCCCCCCCCCN[C@H]1CCCc2[nH]c(=O)ccc21` [E12E, (S,S)-(−)-N, N′-di-5′-(5′, 6′7′,8′-tetrahydroquinolin-2-onyl)-1,12-diaminododecane, bis-hydrochloride], for which, in assay [2], the “Pro-inflammatory cytokine expression after IL-1β stimulation” value is on record as “down-regulating key pro-inflammatory cytokines including TNF-alpha”. In assay [3], the Osteoclastogenesis entry is “suppressed osteoclastogenesis in a dose-dependent manner”. In assay [1], the “Potency in inhibiting rat brain AChE relative to HA” value is “about twice as potent as HA” and the “Potency in inhibiting rat brain AChE relative to tacrine” value is recorded as “about 4.4 times”.
